Measured values from US9603869B2, “Lithium co-crystals and an additional neuropsychiatric agent for treatment of neuropsychiatric disorders” (UNIVERSITY OF SOUTH FLORIDA, priority 2015, dated 2017).
Like-named read-outs stand apart in the source and are kept apart here.

Tests used:
[1] = tested on: primary microglia isolated from 3XTg-AD mice; settings: microglia from older 3XTg-AD mice treated at minimum dose, vs Li2CO3 or control diet
From the text: The inventors will fully examine microglial pro-inflammatory MAPK, NF-kB and CD40 signaling pathways, cytokine secretion, Aβ phagocytosis capacity, markers of M1 or M2 phenotype and microglial autophagy (IMPase) ex vivo via immunohistochemistry, WB, RT-PCR and Flow analysis in primary microglia isolated from these mice. These methods and assays have been well established as previously published (56, 73, 75). The culturing of primary microglial cells from young and aged mice has been routinely conducted (28, 29, 73).

3XTg-AD mice = settings: chow 4 months
From the text: In order to reduce potential lithium toxicity in the kidney, a saline bottle will be provided in addition to water in all cages. Behavior of animals in these groups and in non-transgenic untreated wild-type mice will be evaluated after treatment, with a established behavioral battery which measures multiple cognitive domains, including open field, novel object recognition, radial arm water maze, and contextual and cued fear conditioning (42-46).
The behavioral battery will include the Balance Beam Task, to evaluate vestibular and general motor function and account for any problems that may occur with the rest of the tests due to motor (and not behavioral/cognitive) impairment.

GSK3β [2] = settings: 12 hours
Experimental: FIGS. 2A and 2B. […] Cell lysates were prepared and subjected to WB analysis with specific anti-phospho-GSK3β (Ser9) and total GSK3β antibodies. […] WB results are representative of three independent experiments.
WB results are representative of three independent experiments.

primary microglial cells = tested on: primary microglial cells
Experimental: FIGS. 4A-4C. […] Data are represented as mean percentage of CD40 expressing cells (±SD). […] Microglial cell culture supernatants were collected and subjected to cytokine ELISA as indicated. Data were represented as mean pg of TNFα or IL-12p70 per mg of total cellular protein (±SD). […] Cellular supernatants and lysates were analyzed for extracellular (top panel) and cell-associated (bottom panel) FITC-Aβ42 using a fluorometer. Data are represented as the relative fold of mean fluorescence change (mean±SD), calculated as the mean fluorescence for each sample at 37° C. divided by mean fluorescence at 4° C.
Data are represented as mean percentage of CD40-expressing cells (±SD) (FIG. 4A). […] Microglial cell culture supernatants were collected and subjected to cytokine ELISA as indicated. Data are represented as mean pg of TNFα or IL-12p70 per mg of total cellular protein (±SD) (FIG. 4B). […] Cellular supernatants and lysates were analyzed for extracellular (top panel) and cell-associated (bottom panel) FITC-Aβ42 using a fluorometer (FIG. 4C). Data are represented as the relative fold of mean fluorescence change (mean±SD), calculated as the mean fluorescence for each sample at 37° C. divided by mean fluorescence at 4° C.

[3] = tested on: Human neural stem cells (H9-Derived); experiment: Human neuronal stem cell differentiation (MAP2, GFAP); type: cell-based; settings: 10 mM, 14 days
From the text: Human neural stem cells (H9-Derived) were obtained from Life technologies and cultured with StemPro® NSC SFM media. […] DAPI was used to detect nuclear DNA. Confocal images were taken by Olympus Fluoview™ FV1000 laser scanning confocal microscope (FIG. 18A).

[4] = tested on: β-amyloid pathology in Tg2576 mice; settings: diet 8 weeks, lithium 2.25 mmol/kg/day, Li2CO3 vs control NIH31 diet
Experimental: All mice received normal drinking water ad libitum. […] Mouse brain tissue sections and homogenates were prepared from each mouse after treatment. Half-brain coronal sections were analyzed by Aβ antibody 4G8 staining (FIG. 14A). Percentage of 4G8 positive plaques (mean±SD) was quantified by image analysis (28, 29) (FIG. 14B). Total soluble and insoluble Aβ40,42 peptides from homogenates were analyzed by ELISA, and represented as picograms of Aβ peptides per mg of total protein (FIG. 14C).

GSK3β [5] = experiment: GSK3β phosphorylation Western blot in human renal proximal tubule (HRPT) cells; type: cell-based; settings: 0 to 30 mM, 12 hours
N2a cells = experiment: Neuronal cell differentiation of N2a cells (β-tubulin III, phospho-synapsin I); type: cell-based, mouse; settings: 10 mM, 24 hours
Experimental: FIGS. 5A-5C. […] These cells were then permeabilized with 0.05% Triton X-100 for 5 minutes, washed and stained with mouse anti-β-tubulin III monoclonal antibody ([…]™) and rabbit anti-phospho-Synapsin I (Ser^62, Ser^67) polyclonal antibody (EMD Millipore) overnight at 4° C. […] Confocal images were taken by Olympus fluoview FV1000 laser scanning confocal microscope (Tokyo, Japan).
These cells were then permeabilized with 0.05% Triton X-100 for 5 min, washed, and stained with mouse anti-β-tubulin III monoclonal antibody ([…]™) and rabbit anti-phospho-synapsin I (Ser^62, Ser^67) polyclonal antibody (EMD Millipore) overnight at 4° C. […] Confocal images were taken by Olympus Fluoview™ FV1000 laser scanning confocal microscope (Tokyo, Japan) (FIG. 5A).

cytokines and sCD40L = settings: Tg2576 mice, oral, diet 8 weeks, 2.25 mmol/kg/day
From the text: In addition, spleens from these mice were isolated and splenocytes cultured as described previously (30).

[6] = tested on: Mouse primary microglial cells; experiment: Autophagy (LC3B staining) in mouse primary microglial cells; type: cell-based; settings: 10 mM, 18 hours
From the text: FIG. 8. […] The fluorescence intensity of the autophagosomes and the cytosol were quantified using SLIDEBOOK™ digital microscopy software.
The fluorescence intensity of the autophagosomes and the cytosol were quantified using Slidebook™ digital microscopy software (mean±SD) (FIG. 19).

Notch processing = settings: N2a/APPwt/Notch-ΔE cells, 0, 2.5, 5 and 10 mM, 5 hours, compared to DFK-167
From the text: (§1) FIGS. 1A and 1B. […] The cell lysates were routinely prepared from these cells for Western blot (WB) analysis.

Aβ40,42 peptides = settings: N2a/APPwt cells, LISPRO 0, 2.5, 5 and 10 mM, 12 h
From the text: as §1

[7] = tested on: Murine neuronal stem cells; experiment: Murine neuronal stem cell differentiation (MAP2, total tau, phospho-synapsin I); type: cell-based, mouse; settings: 10 mM, 4 days
Experimental: FIGS. 6A-6F. […] These cells were then permeabilized, washed and stained with mouse anti-MAP2 monoclonal antibody (EMD Millipore) or mouse anti-total tau (tau46) antibody overnight at 4° C. […] Confocal images were taken by Olympus fluoview FV1000 laser scanning confocal microscope. […] DAPI staining (Life Technologies) was used to detect nuclear DNA. Confocal images were taken by Olympus Fluoview™ FV1000 laser scanning confocal microscope (FIG. 17A). […] The band density ratios of MAP2 to β-actin, total tau to β-actin, and phospho-synapsin I to β-actin are presented as mean±S.D (FIGS. 17B-1, 17B-2, and 17B-3, respectively).

Substance: Lithium Salicylate Proline [LISPRO]
- microglial M2 phenotype ex vivo [1]: will strongly preserve an M2 phenotype
- effectiveness on abolishing AD-like cognitive impairment (3XTg-AD mice): more effective than equimolar doses of Li2CO3
- long-term and short-term memory impairment (behavioral battery) (3XTg-AD mice; prophylactic and therapeutic groups): will reverse or abolish long-term and short-term memory impairment
- phosphorylated GSK3β (Ser9) level (WB) (GSK3β [2]; SH-SY5Y cells): notably elevated
- phosphorylated GSK3β (Ser9) level (WB) (GSK3β [2]; primary neuronal cells): notably elevated
- microglial phagocytosis of Aβ (FITC-Aβ42, extracellular and cell-associated) (primary microglial cells; 10 mM pre-treatment 6 hours, 1 μM aged FITC-Aβ42 1 hour): Enhances Microglial Phagocytosis of Aβ
- IFNγ-induced CD40 expression (FACS, percentage of CD40-expressing cells) (primary microglial cells; 8 hours co-treatment): significant dose-dependent decreases
- pro-inflammatory microglial activation induced by IFNγ and CD40 signaling (FACS, TNFα and IL-12p70 ELISA) (primary microglial cells; IFNγ or/and CD40L 1 μg/mL, 8 hours): Inhibits Microglial Activation-Induced by IFNγ and CD40 Signaling
- human neuronal stem cell differentiation (MAP2, GFAP) [3]: Enhances Human Neuronal Stem Cell Differentiation
- β-amyloid pathology (4G8 positive Aβ plaques in brain sections) [4]: Reduces β-Amyloid Pathology
- GSK3β activity / GSK3β (Ser9) phosphorylation (WB) (GSK3β [5]): Markedly Reduces GSK3β Activity
- neuronal cell differentiation (β-tubulin III, phospho-synapsin I) (N2a cells): Markedly Promotes Neuronal Cell Differentiation
- anti-inflammatory/Th2 responses (cytokine ELISA) (cytokines and sCD40L): Promotes Anti-Inflammatory/Th2 Responses
- sCD40L in the CNS (brain homogenate ELISA) (cytokines and sCD40L): Decreases sCD40L
- difference in fluorescence intensity of autophagosomes and cytosol versus Li2CO3 ([6]; P>0.05): no significance difference
- autophagy (LC3B fluorescence intensity of autophagosomes and cytosol) ([6]; vs PBS control): significant enhancement of autophagy
- Notch cleavage (WB, c-myc and cleaved Notch antibodies) (Notch processing): did not inhibit Notch cleavage
- Aβ40, Aβ42 peptides secreted in cell culture media (Aβ generation) (Aβ40,42 peptides): reduces Aβ generation
- murine neuronal stem cell differentiation (MAP2, total tau, phospho-synapsin I) [7]: Enhances Murine Neuronal Stem Cell Differentiation
